What was measured:
[1] = system: Heterozygous mice with maternal deficiency of Ube3A (Ube3am−/p+); assay: Clasping test (ataxia) in a mouse model of Angelman syndrome; format: in vivo; settings: AS mice, CBD 20 mg/kg i.p. daily, chronic treatment (30 days), at 10 weeks of age, vs AS mice treated with vehicle; FIG. 1
Description: (§1) Heterozygous mice with maternal deficiency of Ube3A (Ube3am−/p+) and wild type (Ube3am+/p+) were purchased from The Jackson Laboratory (Jackson code: B6.12957-Ube3a tm1Alb/J) and maintained in a C57BL/6 background.
(§2) Drugs were dissolved in 1:1:18 ethanol:cremophor: 0.9% saline, for intraperitoneal (i.p.) administration. […]
Clasping: The clasping test assesses ataxia in mice. Mice were suspended by the base of the tail and their behaviours were recorded for 30 seconds. The time for which the mice clasped their hind limbs was recorded. The time was then scored as follows: 4, 15-30 s, 3, 10-15 s, 2, 5-10 s, 1, 0-5 s and 0, 0 s.

[2] = system: Heterozygous mice with maternal deficiency of Ube3A (Ube3am−/p+); assay: Rotarod test (balance and motor coordination) in a mouse model of Angelman syndrome; format: in vivo; settings: AS mice, CBD 20 mg/kg i.p. daily, chronic treatment (30 days), vs AS mice treated with vehicle; FIG. 2
Description: as §1, §2
Rotarod: The rotarod test assesses balance and motor coordination of mice. Mice have been measured for the time (in seconds) of equilibrium before falling on a rotary cylinder by a magnet that, activated from the fall of the mouse on the plate, allows to record the time of permanence on the cylinder. […] The animals were analysed by 2 separate tests at 1-h interval in the same day.

[3] = system: Heterozygous mice with maternal deficiency of Ube3A (Ube3am−/p+); assay: Tail suspension test (depressive-like behaviour) in a mouse model of Angelman syndrome; format: in vivo; settings: AS mice, CBD 20 mg/kg i.p. daily, vs AS mice treated with vehicle; FIG. 4
Description: as §1
Drugs were dissolved in 1:1:18 ethanol:cremophor: 0.9% saline, for intraperitoneal (i.p.) administration. Drug treatment was performed daily for 35 days.
Tail suspension: The tail suspension test assesses depressive-like behaviour in mice. Mice were individually suspended by the tail on a horizontal bar (50 cm from floor) using adhesive tape placed approximately 4 cm from the tip of the tail. The duration of immobility was recorded in seconds over a period of 6 minutes by a time recorder. Immobility time was defined as the absence of escape-oriented behaviour.

[4] = background statement; cited from earlier work

Compound	clasping duration [1]	latency to fall (rotarod) [2]	duration of immobility time (tail suspension) [3]	side effects [4]
C=C(C)[C@@H]1CCC(C)=C[C@H]1c1c(O)cc(CCCCC)cc1O [CBD, Cannabidiol]	significantly reduced clasping duration	significantly reduced latency to fall	significantly reduced the duration of immobility time	–
Cc1c(C(=O)NN2CCCCC2)nn(-c2ccc(Cl)cc2Cl)c1-c1ccc(Cl)cc1 [rimonabant]	–	–	–	serious side effects which limit its use, such as suicide ideation
